These results are taken from ChEMBL document CHEMBL5042487, “Design, synthesis, and biological activity evaluation of 2-(benzo[b]thiophen-2-yl)-4-phenyl-4,5-dihydrooxazole derivatives as broad-spectrum antifungal agents” (Eur J Med Chem, 2022).

Molecules are shown by their SMILES. ≈ marks a conversion by molar mass, not a printed value.

In one data set the test system is Cryptococcus neoformans. Kind of data set: Antifungal activity against Cryptococcus neoformans GIM 2.209 assessed as inhibition of fungal growth by NCCLS protocol based method. Format: functional.
The subject of data set [1] is Candida albicans. Kind of data set: Antifungal activity against fluconazole and itraconazole resistant Candida albicans 17# assessed as inhibition of fungal growth by NCCLS protocol based method. Type of data set: functional.
The subject of the next data set is Candida tropicalis. Kind of data set: Antifungal activity against Candida tropicalis GIM 2.183 assessed as inhibition of fungal growth by NCCLS protocol based method. Type of data set: functional.
For a further data set, the system named is Aspergillus fumigatus. As to the kind of experiment: Antifungal activity against Aspergillus fumigatus CGMCC 3.7795 assessed as inhibition of fungal growth by NCCLS protocol based method. Format: functional.
For data set [2], the system named is Candida albicans. Kind of data set: Antifungal activity against fluconazole resistant Candida albicans CaR assessed as inhibition of fungal growth by NCCLS protocol based method. Type of data set: functional.
The subject of data set [3] is Candida albicans. As to the kind of experiment: Antifungal activity against Candida albicans SC5314 assessed as inhibition of fungal growth by NCCLS protocol based method. Format: functional.
Data set [4] deals with Candida albicans. Kind of data set: Antifungal activity against Candida albicans GIM 2.194 assessed as inhibition of fungal growth by NCCLS protocol based method. Type of data set: functional.
Data set [5] is described as follows: Metabolic stability in human liver microsomes assessed as half life at 100 uM pre-incubated for 10 mins followed by NADPH-regenerating system and measured upto 60 mins by LC-MS/MS analysis. Type of data set: ADME, Microsome. Particulars: time <=70 min. (Liver microsomes are a subcellular fraction often used to study metabolism.)
Data set [6] is described as follows: Stability in human plasma assessed as compound remaining incubated for 120 mins by LC-MS/MS analysis. Conditions: 2 h. Format: ADME, cell-free.
The nature of data set [7]: Stability in human plasma assessed as half life incubated for 60 mins by LC-MS/MS analysis. Format: ADME, cell-free.
Data set [8] in a line: Stability in human plasma assessed as compound remaining incubated for 60 mins by LC-MS/MS analysis. Format: ADME, cell-free. Conditions: read-out: Stability.

As to `Fc1cccc(C2(Cn3cncn3)COC(c3cc4ccc(Br)cc4s3)=N2)c1` (stereo unspecified), the MIC in the data set with Cryptococcus neoformans is 0.25 µg/mL (≈ 0.547 µM); in the data set on Candida albicans [1], over 64 µg/mL; in the data set with Candida tropicalis, under 0.03 µg/mL; in the data set with Aspergillus fumigatus it was 2 µg/mL (≈ 4.37 µM); with Candida albicans [2] it was over 64 µg/mL; in the data set with Candida albicans [3] it was under 0.03 µg/mL. In addition, in the data set on Candida albicans [4], the MIC was under 0.03 µg/mL.

As for `Fc1ccc(C2(Cn3cncn3)COC(c3cc4ccc(F)cc4s3)=N2)cc1` (stereo unspecified), the MIC with Cryptococcus neoformans was 2 µg/mL (≈ 5.05 µM); with Candida albicans [1], over 64 µg/mL; with Candida tropicalis it was 0.25 µg/mL (≈ 0.631 µM); in the data set with Aspergillus fumigatus, 1 µg/mL (≈ 2.52 µM); in the data set on Candida albicans [2], over 64 µg/mL; in the data set on Candida albicans [3] it was 0.125 µg/mL (≈ 0.315 µM). Also, the MIC in the data set with Candida albicans [4] is 0.5 µg/mL (≈ 1.26 µM).

Turning to `Clc1cccc(C2(Cn3cncn3)COC(c3cc4ccc(Cl)cc4s3)=N2)c1` (stereo unspecified), the MIC was determined as 0.5 µg/mL (≈ 1.16 µM) with Cryptococcus neoformans; 0.125 µg/mL (≈ 0.291 µM) in the data set with Candida tropicalis; 16 µg/mL (≈ 37.3 µM) in the data set with Aspergillus fumigatus; 0.06 µg/mL (≈ 0.14 µM) in the data set with Candida albicans [3]; 0.06 µg/mL (≈ 0.14 µM) in the data set on Candida albicans [4].

As to `c1ccc(C2(Cn3cncn3)COC(c3ccc(-c4ccoc4)cc3)=N2)cc1` (stereo unspecified), the MIC in the data set on Cryptococcus neoformans was 0.25 µg/mL (≈ 0.675 µM); with Candida tropicalis, under 0.125 µg/mL; in the data set on Aspergillus fumigatus, 0.5 µg/mL (≈ 1.35 µM); in the data set with Candida albicans [3], under 0.03 µg/mL; with Candida albicans [4], 0.5 µg/mL (≈ 1.35 µM).

As to `Fc1ccc(C2(Cn3cncn3)COC(c3ccc(-c4ccoc4)cc3)=N2)cc1` (stereo unspecified), the MIC in the data set on Cryptococcus neoformans was 0.25 µg/mL (≈ 0.644 µM); in the data set with Candida tropicalis it was 0.125 µg/mL (≈ 0.322 µM); in the data set on Aspergillus fumigatus, 0.25 µg/mL (≈ 0.644 µM); in the data set on Candida albicans [3], under 0.03 µg/mL; in the data set with Candida albicans [4] it was under 0.03 µg/mL. Moreover, in data set [5], the half-life at 100 µM worked out at 18.6 min.

Turning to `CC(=O)N1CCN(c2ccc(C3=NC(Cn4cncn4)(c4ccccc4)CO3)cc2)CC1` (stereo unspecified), the minimum inhibitory concentration (MIC) with Cryptococcus neoformans is over 64 µg/mL; in the data set on Candida tropicalis, over 64 µg/mL; in the data set with Aspergillus fumigatus, over 64 µg/mL; with Candida albicans [3], over 16 µg/mL; in the data set with Candida albicans [4], over 16 µg/mL.

For the compound `N#Cc1ccc2cc(C3=NC(Cn4cncn4)(c4ccccc4)CO3)sc2c1` (stereo unspecified), the MIC in the data set on Cryptococcus neoformans is over 64 µg/mL; in the data set on Candida tropicalis it was over 16 µg/mL; with Aspergillus fumigatus it was over 64 µg/mL; in the data set with Candida albicans [3], over 16 µg/mL; in the data set on Candida albicans [4] it was over 16 µg/mL.

In the case of `c1ccc(-c2cc(C3=NC(Cn4cncn4)(c4ccccc4)CO3)no2)cc1` (stereo unspecified), the MIC with Cryptococcus neoformans is over 64 µg/mL; in the data set on Candida tropicalis, over 64 µg/mL; in the data set on Aspergillus fumigatus, 2 µg/mL (≈ 5.39 µM); with Candida albicans [3] it was over 16 µg/mL; in the data set with Candida albicans [4], over 16 µg/mL.

On to `Fc1cccc(C2(Cn3cncn3)COC(c3cc4ccc(Cl)cc4s3)=N2)c1` (stereo unspecified), for which the MIC is 0.25 µg/mL (≈ 0.606 µM) in the data set with Cryptococcus neoformans; over 64 µg/mL with Candida albicans [1]; 4 µg/mL (≈ 9.69 µM) in the data set on Candida tropicalis; 1 µg/mL (≈ 2.42 µM) in the data set with Aspergillus fumigatus; over 64 µg/mL in the data set with Candida albicans [2]; under 0.03 µg/mL with Candida albicans [3]. Also, the MIC in the data set with Candida albicans [4] is under 0.03 µg/mL.

Regarding `O=C(Nc1ccc(C2=NC(Cn3cncn3)(c3ccccc3)CO2)cc1)c1ccccc1` (stereo unspecified), the MIC in the data set on Cryptococcus neoformans is over 64 µg/mL; with Candida tropicalis it was over 64 µg/mL; in the data set on Aspergillus fumigatus, over 64 µg/mL; in the data set on Candida albicans [3] it was over 16 µg/mL; in the data set with Candida albicans [4], 8 µg/mL (≈ 18.9 µM).

Turning to `FC(F)(F)c1ccc2sc(C3=NC(Cn4cncn4)(c4ccccc4)CO3)cc2c1` (stereo unspecified), the MIC is over 64 µg/mL in the data set on Cryptococcus neoformans; over 16 µg/mL in the data set on Candida tropicalis; over 64 µg/mL with Aspergillus fumigatus; 0.5 µg/mL (≈ 1.17 µM) in the data set with Candida albicans [3]; over 16 µg/mL with Candida albicans [4].

`Fc1ccc(C2(Cn3cncn3)COC(c3ccc(-c4ccccc4F)cc3)=N2)cc1` (stereo unspecified): the MIC with Cryptococcus neoformans was over 64 µg/mL; in the data set on Candida tropicalis it was 0.06 µg/mL (≈ 0.144 µM); in the data set with Aspergillus fumigatus it was over 64 µg/mL; in the data set on Candida albicans [3] it was under 0.03 µg/mL; in the data set on Candida albicans [4] it was under 0.03 µg/mL.

With `Fc1ccc(C2(Cn3cncn3)COC(c3cc4ccc(Br)cc4s3)=N2)c(F)c1` (stereo unspecified), the MIC is 0.5 µg/mL (≈ 1.05 µM) in the data set with Cryptococcus neoformans; under 0.03 µg/mL in the data set on Candida tropicalis; over 64 µg/mL in the data set with Aspergillus fumigatus; under 0.03 µg/mL with Candida albicans [3]; under 0.03 µg/mL in the data set on Candida albicans [4].

On to `OC(Cn1cncn1)(Cn1cncn1)c1ccc(F)cc1F` [FLUCONAZOLE], for which the Stability in data set [6] is given as 88.2%. In addition, the MIC was 4 µg/mL (≈ 13.1 µM) in the data set with Cryptococcus neoformans; over 64 µg/mL in the data set with Candida albicans [1]; 1 µg/mL (≈ 3.27 µM) in the data set on Candida tropicalis; over 64 µg/mL in the data set on Aspergillus fumigatus; over 64 µg/mL in the data set on Candida albicans [2]; 0.5 µg/mL (≈ 1.63 µM) in the data set with Candida albicans [3]. In addition, the minimum inhibitory concentration (MIC) in the data set with Candida albicans [4] amounted to 1 µg/mL (≈ 3.27 µM). Also, the half-life in data set [7] was over 289 min. Moreover, the remaining at 1 h in data set [8] came to 86.7%.

With `Fc1ccc2sc(C3=NC(Cn4cncn4)(c4ccccc4)CO3)cc2c1` (stereo unspecified), the MIC in the data set on Cryptococcus neoformans was 16 µg/mL (≈ 42.3 µM); in the data set on Candida tropicalis, over 16 µg/mL; in the data set on Aspergillus fumigatus, 1 µg/mL (≈ 2.64 µM); in the data set with Candida albicans [3], 1 µg/mL (≈ 2.64 µM); with Candida albicans [4], over 16 µg/mL.

With `c1ccc(C2(Cn3cncn3)COC(c3ccc4ccccc4c3)=N2)cc1` (stereo unspecified), the MIC in the data set with Cryptococcus neoformans was 1 µg/mL (≈ 2.82 µM); in the data set on Candida tropicalis, over 64 µg/mL; in the data set on Aspergillus fumigatus it was 4 µg/mL (≈ 11.3 µM); with Candida albicans [3], over 16 µg/mL; in the data set with Candida albicans [4], over 16 µg/mL.

As to `Fc1ccc2cc(C3=NC(Cn4cncn4)(c4ccccc4)CO3)sc2c1` (stereo unspecified), the MIC with Cryptococcus neoformans amounted to 4 µg/mL (≈ 10.6 µM); in the data set with Candida tropicalis, 4 µg/mL (≈ 10.6 µM); in the data set with Aspergillus fumigatus, 2 µg/mL (≈ 5.28 µM); in the data set with Candida albicans [3], 0.25 µg/mL (≈ 0.661 µM); in the data set on Candida albicans [4] it was 1 µg/mL (≈ 2.64 µM).

Take `Clc1cccc(C2(Cn3cncn3)COC(c3cc4ccc(Br)cc4s3)=N2)c1` (stereo unspecified): the MIC in the data set on Cryptococcus neoformans was determined as 0.5 µg/mL (≈ 1.06 µM); in the data set with Candida tropicalis, 0.125 µg/mL (≈ 0.264 µM); in the data set with Aspergillus fumigatus, 16 µg/mL (≈ 33.8 µM); in the data set on Candida albicans [3], 0.06 µg/mL (≈ 0.127 µM); in the data set with Candida albicans [4] it was 0.06 µg/mL (≈ 0.127 µM).

`Fc1ccc(C2(Cn3cncn3)COC(c3cc4ccc(Br)cc4s3)=N2)cc1` (stereo unspecified): the minimal inhibitory concentration (MIC) in the data set on Cryptococcus neoformans is 1 µg/mL (≈ 2.19 µM); with Candida albicans [1], over 64 µg/mL; in the data set with Candida tropicalis, 0.13 µg/mL (≈ 0.284 µM); with Aspergillus fumigatus it was 2 µg/mL (≈ 4.37 µM); with Candida albicans [2], 0.5 µg/mL (≈ 1.09 µM); in the data set with Candida albicans [3], under 0.03 µg/mL. In addition, in the data set on Candida albicans [4], the minimum inhibitory concentration (MIC) came out at 0.06 µg/mL (≈ 0.131 µM).

`Clc1ccc(C2(Cn3cncn3)COC(c3cc4ccc(Br)cc4s3)=N2)cc1` (stereo unspecified): the MIC with Cryptococcus neoformans is 0.25 µg/mL (≈ 0.528 µM); in the data set with Candida albicans [1], over 64 µg/mL; with Candida tropicalis, 0.06 µg/mL (≈ 0.127 µM); with Aspergillus fumigatus it was 1 µg/mL (≈ 2.11 µM); in the data set with Candida albicans [2], 0.5 µg/mL (≈ 1.06 µM); in the data set on Candida albicans [3], under 0.03 µg/mL. Further, the MIC in the data set with Candida albicans [4] is under 0.03 µg/mL.

`c1ccc(C2(Cn3cncn3)COC(c3cc4ccccc4o3)=N2)cc1` (stereo unspecified): the MIC is 2 µg/mL (≈ 5.81 µM) with Cryptococcus neoformans; over 64 µg/mL in the data set with Candida tropicalis; 8 µg/mL (≈ 23.2 µM) in the data set on Aspergillus fumigatus; over 16 µg/mL with Candida albicans [3]; over 16 µg/mL with Candida albicans [4].

For `c1ccc(COc2ccc(C3=NC(Cn4cncn4)(c4ccccc4)CO3)cc2)cc1` (stereo unspecified), the MIC with Cryptococcus neoformans was over 64 µg/mL; in the data set with Candida tropicalis, over 64 µg/mL; in the data set on Aspergillus fumigatus it was over 64 µg/mL; in the data set with Candida albicans [3], over 16 µg/mL; with Candida albicans [4], over 16 µg/mL.

As for `FC(F)(F)c1ccc2cc(C3=NC(Cn4cncn4)(c4ccccc4)CO3)sc2c1` (stereo unspecified), the MIC is 16 µg/mL (≈ 37.3 µM) in the data set on Cryptococcus neoformans; 8 µg/mL (≈ 18.7 µM) in the data set with Candida tropicalis; over 64 µg/mL with Aspergillus fumigatus; 0.25 µg/mL (≈ 0.584 µM) with Candida albicans [3]; over 16 µg/mL in the data set with Candida albicans [4].

For the compound `c1ccc(-c2ccc(C3=NC(Cn4cncn4)(c4ccccc4)CO3)s2)cc1` (stereo unspecified), the MIC with Cryptococcus neoformans was 0.5 µg/mL (≈ 1.29 µM); in the data set on Candida tropicalis, over 64 µg/mL; with Aspergillus fumigatus, 4 µg/mL (≈ 10.3 µM); in the data set on Candida albicans [3], over 16 µg/mL; in the data set on Candida albicans [4] it was over 16 µg/mL.

A word on the MIC: it is the lowest concentration that inhibits growth of the organism. A word on the half-life: it is how long it takes for the measured level to halve.
